From ChEMBL document CHEMBL1201862, “PubChem BioAssay data set” (2004)
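Dose response: 5 concentrations. Exposure: 48 h. Format: 96-well plates. Endpoint: linear interpolation; highest concentration if not reached. The concentration for 50% growth inhibition is given as GI50.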 Activity calls are given as the source filed them. Cut-off read from the data, not from the text of the source: active = GI50 up to about 1.1 µM and inactive = higher.

How the values were obtained:
Assay in all cases: NCI anticancer screen, dose series, 48 h
[1] = system: 786-0
[2] = system: A498
[3] = system: A549
[4] = system: ACHN
[5] = system: BT-549
[6] = system: CAKI-1
[7] = system: CCRF-CEM
[8] = system: COLO 205
[9] = system: EKVX
[10] = system: HCC 2998
[11] = system: HCT-116
[12] = system: HCT-15
[13] = system: HL-60
[14] = system: HOP-62
[15] = system: HOP-92
[16] = system: HT-29
[17] = system: Hs-578T
[18] = system: IGROV-1
[19] = system: K562
[20] = system: KM12
[21] = system: LOX IMVI
[22] = system: M14
[23] = system: MCF7
[24] = system: MDA-MB-231
[25] = system: MDA-MB-435
[26] = system: MDA-N
[27] = system: MOLT-4
[28] = system: Malme-3M
[29] = system: NCI-H226
[30] = system: NCI-H23
[31] = system: NCI-H460
[32] = system: NCI/ADR-RES
[33] = system: OVCAR-3
[34] = system: OVCAR-4
[35] = system: OVCAR-5
[36] = system: OVCAR-8
[37] = system: PC-3
[38] = system: RXF 393
[39] = system: SF-295
[40] = system: SF-539
[41] = system: SK-MEL-28
[42] = system: SK-MEL-2
[43] = system: SK-MEL-5
[44] = system: SK-OV-3
[45] = system: SN12C
[46] = system: SNB-19
[47] = system: SNB-75
[48] = system: SR
[49] = system: SW-620
[50] = system: TK-10
[51] = system: U-251
[52] = system: UACC-257
[53] = system: UACC-62
[54] = system: UO-31
[55] = system: DU-145
[56] = system: NCI-H522
[57] = system: RPMI-8226
[58] = system: SF-268

Compound: CN(C)c1ccc(/C=N/N=C2\C(=O)Nc3c(Cl)cc(Cl)cc32)cc1
- GI50 [1]: 45.9 µM (inactive)
- GI50 [2]: 32.2 µM (inactive)
- GI50 [3]: 41.9 µM (inactive)
- GI50 [4]: 97.9 µM (inactive)
- GI50 [5]: 36.6 µM (inactive)
- GI50 [6]: 55.8 µM (inactive)
- GI50 [7]: 27.8 µM (inactive)
- GI50 [8]: 52.6 µM (inactive)
- GI50 [9]: 3.41 µM (inactive)
- GI50 [10]: 64 µM (inactive)
- GI50 [11]: 39 µM (inactive)
- GI50 [12]: 32.4 µM
- GI50 [13]: 28.6 µM (inactive)
- GI50 [14]: 39.7 µM (inactive)
- GI50 [15]: 92.5 µM (inactive)
- GI50 [16]: 26.1 µM (inactive)
- GI50 [17]: 24.7 µM (inactive)
- GI50 [18]: 24.2 µM (inactive)
- GI50 [19]: 20.6 µM (inactive)
- GI50 [20]: 10.1 µM (inactive)
- GI50 [21]: 25.6 µM (inactive)
- GI50 [22]: 45.9 µM (inactive)
- GI50 [23]: 46.2 µM (inactive)
- GI50 [24]: 32.5 µM (inactive)
- GI50 [25]: 22.5 µM (inactive)
- GI50 [26]: 13.5 µM (inactive)
- GI50 [27]: 16.4 µM (inactive)
- GI50 [28]: 25.2 µM (inactive)
- GI50 [29]: > 100 µM (inactive)
- GI50 [30]: 46.3 µM (inactive)
- GI50 [31]: 41 µM (inactive)
- GI50 [32]: 20.2 µM (inactive)
- GI50 [33]: 36.6 µM (inactive)
- GI50 [34]: > 100 µM (inactive)
- GI50 [35]: > 100 µM (inactive)
- GI50 [36]: 93.1 µM (inactive)
- GI50 [37]: 29.5 µM (inactive)
- GI50 [38]: 59.3 µM (inactive)
- GI50 [39]: 32.9 µM (inactive)
- GI50 [40]: 39.5 µM (inactive)
- GI50 [41]: 47.3 µM (inactive)
- GI50 [42]: 32.1 µM (inactive)
- GI50 [43]: 41.2 µM (inactive)
- GI50 [44]: > 100 µM (inactive)
- GI50 [45]: > 100 µM (inactive)
- GI50 [46]: > 100 µM (inactive)
- GI50 [47]: 22.8 µM (inactive)
- GI50 [48]: 6.46 µM (inactive)
- GI50 [49]: 35.6 µM (inactive)
- GI50 [50]: 94.8 µM (inactive)
- GI50 [51]: 79.3 µM (inactive)
- GI50 [52]: > 100 µM (inactive)
- GI50 [53]: 42.2 µM (inactive)
- GI50 [54]: 22.9 µM (inactive)

Compound: CCOC(=O)/C(=C\NC[C@@H](C)O)c1nc2ccccc2[nH]1
- GI50 [1]: > 100 µM (inactive)
- GI50 [2]: 55 µM (inactive)
- GI50 [3]: 62.4 µM (inactive)
- GI50 [4]: 32.4 µM (inactive)
- GI50 [5]: > 100 µM (inactive)
- GI50 [6]: > 100 µM (inactive)
- GI50 [8]: 69.5 µM (inactive)
- GI50 [55]: > 100 µM (inactive)
- GI50 [9]: > 100 µM (inactive)
- GI50 [10]: 37.4 µM (inactive)
- GI50 [11]: > 100 µM (inactive)
- GI50 [12]: 73.3 µM
- GI50 [13]: 20.4 µM (inactive)
- GI50 [14]: > 100 µM (inactive)
- GI50 [15]: 72.9 µM (inactive)
- GI50 [16]: 71.3 µM (inactive)
- GI50 [18]: 37.8 µM (inactive)
- GI50 [20]: 57.4 µM (inactive)
- GI50 [21]: 96.8 µM (inactive)
- GI50 [22]: 56 µM (inactive)
- GI50 [23]: 60.8 µM (inactive)
- GI50 [25]: > 100 µM (inactive)
- GI50 [26]: > 100 µM (inactive)
- GI50 [27]: 0.238 µM (active)
- GI50 [28]: > 100 µM (inactive)
- GI50 [30]: 54.5 µM (inactive)
- GI50 [31]: 33.3 µM (inactive)
- GI50 [56]: 40.3 µM (inactive)
- GI50 [32]: 44.3 µM (inactive)
- GI50 [33]: 98.4 µM (inactive)
- GI50 [34]: 83.8 µM (inactive)
- GI50 [35]: > 100 µM (inactive)
- GI50 [36]: 64 µM (inactive)
- GI50 [57]: 29.1 µM (inactive)
- GI50 [38]: > 100 µM (inactive)
- GI50 [58]: 60.7 µM (inactive)
- GI50 [39]: 61.1 µM (inactive)
- GI50 [40]: > 100 µM (inactive)
- GI50 [41]: 57.3 µM (inactive)
- GI50 [43]: 29.5 µM (inactive)
- GI50 [44]: > 100 µM (inactive)
- GI50 [45]: 93.1 µM (inactive)
- GI50 [46]: > 100 µM (inactive)
- GI50 [47]: > 100 µM (inactive)
- GI50 [48]: 0.0473 µM (active)
- GI50 [49]: > 100 µM (inactive)
- GI50 [50]: 54.2 µM (inactive)
- GI50 [52]: 56 µM (inactive)
- GI50 [53]: 40.9 µM (inactive)
- GI50 [54]: 0.33 µM (active)

Compound: Cn1c(Nc2ccccc2)c(/C=N\c2ccccc2)c(=O)n(C)c1=O
- GI50 [1]: 65.3 µM (inactive)
- GI50 [2]: 80 µM (inactive)
- GI50 [3]: > 100 µM (inactive)
- GI50 [5]: > 100 µM (inactive)
- GI50 [7]: > 100 µM (inactive)
- GI50 [55]: > 100 µM (inactive)
- GI50 [11]: 48.2 µM (inactive)
- GI50 [13]: > 100 µM (inactive)
- GI50 [14]: 22.5 µM (inactive)
- GI50 [15]: 41.7 µM (inactive)
- GI50 [16]: 47.9 µM (inactive)
- GI50 [18]: 38.3 µM (inactive)
- GI50 [19]: > 100 µM (inactive)
- GI50 [20]: 97.7 µM (inactive)
- GI50 [21]: 36.4 µM (inactive)
- GI50 [22]: > 100 µM (inactive)
- GI50 [23]: > 100 µM (inactive)
- GI50 [24]: 61.4 µM (inactive)
- GI50 [25]: > 100 µM (inactive)
- GI50 [26]: > 100 µM (inactive)
- GI50 [27]: 61.5 µM (inactive)
- GI50 [30]: 82.6 µM (inactive)
- GI50 [31]: 56.2 µM (inactive)
- GI50 [32]: 41 µM (inactive)
- GI50 [33]: > 100 µM (inactive)
- GI50 [34]: > 100 µM (inactive)
- GI50 [35]: > 100 µM (inactive)
- GI50 [36]: 39.7 µM (inactive)
- GI50 [37]: > 100 µM (inactive)
- GI50 [57]: > 100 µM (inactive)
- GI50 [38]: 75.9 µM (inactive)
- GI50 [58]: 45.7 µM (inactive)
- GI50 [39]: 89.5 µM (inactive)
- GI50 [40]: 94 µM (inactive)
- GI50 [41]: > 100 µM (inactive)
- GI50 [42]: > 100 µM (inactive)
- GI50 [44]: 62.1 µM (inactive)
- GI50 [45]: 69.3 µM (inactive)
- GI50 [49]: > 100 µM (inactive)
- GI50 [50]: > 100 µM (inactive)
- GI50 [51]: 30 µM (inactive)
- GI50 [52]: > 100 µM (inactive)
- GI50 [53]: > 100 µM (inactive)
- GI50 [54]: 54.2 µM (inactive)

Compound: NNC(=O)c1ccc(-n2nnc(C(=O)NN)c2C(=O)NN)cc1
- GI50 [1]: > 100 µM (inactive)
- GI50 [3]: > 100 µM (inactive)
- GI50 [4]: > 100 µM (inactive)
- GI50 [5]: > 100 µM (inactive)
- GI50 [6]: > 100 µM (inactive)
- GI50 [7]: > 100 µM (inactive)
- GI50 [8]: > 100 µM (inactive)
- GI50 [55]: > 100 µM (inactive)
- GI50 [9]: > 100 µM (inactive)
- GI50 [10]: > 100 µM (inactive)
- GI50 [11]: > 100 µM (inactive)
- GI50 [12]: > 100 µM
- GI50 [13]: > 100 µM (inactive)
- GI50 [14]: > 100 µM (inactive)
- GI50 [15]: > 100 µM (inactive)
- GI50 [16]: > 100 µM (inactive)
- GI50 [19]: > 100 µM (inactive)
- GI50 [20]: > 100 µM (inactive)
- GI50 [21]: > 100 µM (inactive)
- GI50 [22]: > 100 µM (inactive)
- GI50 [23]: > 100 µM (inactive)
- GI50 [24]: > 100 µM (inactive)
- GI50 [25]: > 100 µM (inactive)
- GI50 [26]: > 100 µM (inactive)
- GI50 [27]: > 100 µM (inactive)
- GI50 [28]: > 100 µM (inactive)
- GI50 [30]: > 100 µM (inactive)
- GI50 [31]: > 100 µM (inactive)
- GI50 [32]: > 100 µM (inactive)
- GI50 [33]: > 100 µM (inactive)
- GI50 [34]: > 100 µM (inactive)
- GI50 [35]: > 100 µM (inactive)
- GI50 [36]: > 100 µM (inactive)
- GI50 [37]: > 100 µM (inactive)
- GI50 [57]: > 100 µM (inactive)
- GI50 [39]: > 100 µM (inactive)
- GI50 [41]: > 100 µM (inactive)
- GI50 [42]: > 100 µM (inactive)
- GI50 [43]: > 100 µM (inactive)
- GI50 [45]: > 100 µM (inactive)
- GI50 [46]: > 100 µM (inactive)
- GI50 [48]: > 100 µM (inactive)
- GI50 [50]: > 100 µM (inactive)
- GI50 [51]: > 100 µM (inactive)
- GI50 [52]: > 100 µM (inactive)
- GI50 [54]: > 100 µM (inactive)
